In patent publication US6576268B2, “Biologically active fraction of vegetable melanin, process for its production and its use” (priority 1998, dated 2003):

Assay: SOD-like activity and IC50, chemiluminometric method (PHOTOCHEM, set FAT Berlin)
Format: biochemical
Conditions: fytomelanin with 10^19 spin/g
Description: To determine the SOD-like activity a chemiluminometric method using the chemiluminometer PHOTOCHEM was used, where the set FAT, Berlin for the SOD activity was used for the determination. The measurements were performed with the measuring time of 3 minutes, and the area integral of the chemiluminiscent curve was recorded. The value was recalculated to the unit SOD activity (by weight), and it represents 0.2 of the SOD activity.

-log IC50: 8.064
Substance: SOD: superoxide dismutase, molecular weight 32000, reference enzyme
% SOD activity (relative to SOD = 100): 100.00%
